According to ChEMBL document CHEMBL1201862, “PubChem BioAssay data set” (2004):
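Exposure lasted 48 hours, with cells grown in 96-well plates and compounds tested at five concentrations. Abbreviation: GI50, concentration required for 50% inhibition of growth.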 Activity calls are given as the source filed them. No stated cut-off is given here; in the data, active = GI50 up to about 1.1 µM and inactive = higher.

Tests used:
Assay in all cases: DTP human tumour cell line panel, 48 h
UACC-62 = test system: UACC-62
NCI-H23 = test system: NCI-H23
HCC 2998 = test system: HCC 2998
HOP-62 = test system: HOP-62
OVCAR-4 = test system: OVCAR-4
SF-268 = test system: SF-268
A549 = test system: A549
SK-MEL-28 = test system: SK-MEL-28
M14 = test system: M14
ACHN = test system: ACHN
HT-29 = test system: HT-29
OVCAR-8 = test system: OVCAR-8
TK-10 = test system: TK-10
A498 = test system: A498
SK-MEL-5 = test system: SK-MEL-5
OVCAR-5 = test system: OVCAR-5
NCI-H226 = test system: NCI-H226
CAKI-1 = test system: CAKI-1

| SMILES | GI50 (UACC-62) | GI50 (NCI-H23) | GI50 (HCC 2998) | GI50 (HOP-62) | GI50 (OVCAR-4) | GI50 (SF-268) | GI50 (A549) | GI50 (SK-MEL-28) | GI50 (M14) | GI50 (ACHN) | GI50 (HT-29) | GI50 (OVCAR-8) | GI50 (TK-10) | GI50 (A498) | GI50 (SK-MEL-5) | GI50 (OVCAR-5) | GI50 (NCI-H226) | GI50 (CAKI-1) |
| --- | --- | --- | --- | --- | --- | --- | --- | --- | --- | --- | --- | --- | --- | --- | --- | --- | --- | --- |
| Nc1ccc(C(c2ccccc2)(c2ccccc2)c2ccccc2)cc1 | 16.5 µM (inactive) | 30.1 µM (inactive) | > 100 µM (inactive) | 27.9 µM (inactive) | 24.7 µM (inactive) | 99.3 µM (inactive) | > 100 µM (inactive) | 19.7 µM (inactive) | 15.8 µM (inactive) | 52.5 µM (inactive) | 45.5 µM (inactive) | 33.9 µM (inactive) | 20.2 µM (inactive) | > 100 µM (inactive) | 42.2 µM (inactive) |  |  |  |
| C/C(O)=C1\CC2CN3CCc4c([nH]c5ccccc45)C3CC2CC1=O (stereo not given) |  | 92 µM (inactive) | 58.9 µM (inactive) | > 100 µM (inactive) | 46 µM (inactive) | 54.6 µM (inactive) | > 100 µM (inactive) | > 100 µM (inactive) | 49.4 µM (inactive) | 82.8 µM (inactive) | 67.1 µM (inactive) | 89.1 µM (inactive) | > 100 µM (inactive) | > 100 µM (inactive) | 55.2 µM (inactive) | 70 µM (inactive) | 54.1 µM (inactive) |  |
| COc1ccc(C2C(Cl)C(=O)N2NC(=O)c2ccc(NC(C)=O)cc2)cc1 (stereo not given) | > 100 µM (inactive) | > 100 µM (inactive) |  | > 100 µM (inactive) | > 100 µM (inactive) | > 100 µM (inactive) | > 100 µM (inactive) | > 100 µM (inactive) | > 100 µM (inactive) | > 100 µM (inactive) | > 100 µM (inactive) | > 100 µM (inactive) | > 100 µM (inactive) | > 100 µM (inactive) | > 100 µM (inactive) | > 100 µM (inactive) | > 100 µM (inactive) | > 100 µM (inactive) |
| O=C(CC1Sc2ccccc2NC1=O)Nc1cc(Cl)ccc1Cl (stereo not given) | > 100 µM (inactive) | > 100 µM (inactive) | > 100 µM (inactive) |  | > 100 µM (inactive) | > 100 µM (inactive) | > 100 µM (inactive) | > 100 µM (inactive) | > 100 µM (inactive) | > 100 µM (inactive) | > 100 µM (inactive) | > 100 µM (inactive) | > 100 µM (inactive) | > 100 µM (inactive) | > 100 µM (inactive) | > 100 µM (inactive) | > 100 µM (inactive) | > 100 µM (inactive) |
| O=C(NC(=O)c1cc2cc(Br)cc(Br)c2oc1=O)Oc1ccccc1 | 50.7 µM (inactive) | > 100 µM (inactive) | > 100 µM (inactive) | 43.7 µM (inactive) | > 100 µM (inactive) | > 100 µM (inactive) | > 100 µM (inactive) | > 100 µM (inactive) | > 100 µM (inactive) | 21.7 µM (inactive) | > 100 µM (inactive) | 46.5 µM (inactive) | 47.9 µM (inactive) | > 100 µM (inactive) | > 100 µM (inactive) | > 100 µM (inactive) | 78.2 µM (inactive) | 43 µM (inactive) |
| CCCCCCCCCCCCCCCC(=O)NCC(OCC)OCC | > 100 µM (inactive) | > 100 µM (inactive) | > 100 µM (inactive) | > 100 µM (inactive) | > 100 µM (inactive) | > 100 µM (inactive) | > 100 µM (inactive) | > 100 µM (inactive) | > 100 µM (inactive) | > 100 µM (inactive) | > 100 µM (inactive) | > 100 µM (inactive) | > 100 µM (inactive) |  | > 100 µM (inactive) | > 100 µM (inactive) | > 100 µM (inactive) |  |
| N#C/N=C1\NC(Cc2ccccc2)C(=O)N1CCc1c[nH]c2ccccc12 (stereo not given) | 23.2 µM (inactive) | 35.7 µM (inactive) | 19.8 µM (inactive) | 28.1 µM (inactive) | 25.5 µM (inactive) | 15.7 µM (inactive) | 27 µM (inactive) | 23.6 µM (inactive) | 35.1 µM (inactive) |  | 34.9 µM (inactive) | 37.4 µM (inactive) | 26.6 µM (inactive) |  | 17.8 µM (inactive) |  | 37.1 µM (inactive) |  |
| CCOC(=O)c1nn2c(nc1=O)sc1ccc3ccccc3c12 | > 100 µM (inactive) | > 100 µM (inactive) | > 100 µM (inactive) | > 100 µM (inactive) | > 100 µM (inactive) | > 100 µM (inactive) | > 100 µM (inactive) | > 100 µM (inactive) | > 100 µM (inactive) | > 100 µM (inactive) | > 100 µM (inactive) | > 100 µM (inactive) | > 100 µM (inactive) |  | > 100 µM (inactive) | > 100 µM (inactive) | > 100 µM (inactive) | > 100 µM (inactive) |
| COC(=O)[C@H]1COC(=S)N1C(=O)[C@@H](C)[C@H](O)C(C)C | > 100 µM (inactive) | > 100 µM (inactive) | > 100 µM (inactive) | > 100 µM (inactive) | > 100 µM (inactive) | > 100 µM (inactive) | > 100 µM (inactive) | > 100 µM (inactive) | > 100 µM (inactive) | > 100 µM (inactive) | > 100 µM (inactive) | > 100 µM (inactive) | > 100 µM (inactive) | > 100 µM (inactive) | > 100 µM (inactive) | > 100 µM (inactive) | 12.8 µM (inactive) | > 100 µM (inactive) |
| CC(=O)OC(C)(C)/C=C/C(=O)[C@](C)(O)[C@H]1[C@H](O)C[C@@]2(C)[C@@H]3CC=C4[C@@H](C[C@H](O)[C@H](O)C4(C)C)[C@]3(C)C(=O)C[C@]12C | 0.48 µM (active) | 0.324 µM (active) | 0.822 µM (active) | 1.51 µM (inactive) | 0.331 µM (active) | 0.397 µM (active) | 0.822 µM (active) | 0.526 µM (active) | 0.442 µM (active) | 0.498 µM (active) | 0.302 µM (active) | 0.33 µM (active) | 0.548 µM (active) | 0.853 µM (active) | 0.701 µM (active) | 0.883 µM (active) | 0.984 µM (active) | 0.385 µM (active) |
| Cc1c(C(=O)CC(=O)C(=O)Nc2ccc(Cl)cc2)[n+]([O-])c2ccccc2[n+]1[O-] | > 100 µM (inactive) | > 100 µM (inactive) |  |  | > 100 µM (inactive) | > 100 µM (inactive) | > 100 µM (inactive) | > 100 µM (inactive) | > 100 µM (inactive) | > 100 µM (inactive) |  | > 100 µM (inactive) | > 100 µM (inactive) | > 100 µM (inactive) | > 100 µM (inactive) | > 100 µM (inactive) | > 100 µM (inactive) | > 100 µM (inactive) |
| C[C@]12CCc3nonc3C1CC[C@@H]1C2CC[C@]2(C)NC(=O)CCC12 (stereo not given in full) | > 100 µM (inactive) | > 100 µM (inactive) |  | > 100 µM (inactive) | > 100 µM (inactive) | > 100 µM (inactive) | > 100 µM (inactive) | > 100 µM (inactive) | > 100 µM (inactive) | > 100 µM (inactive) | > 100 µM (inactive) | > 100 µM (inactive) | > 100 µM (inactive) | > 100 µM (inactive) | > 100 µM (inactive) | > 100 µM (inactive) | > 100 µM (inactive) | > 100 µM (inactive) |
| Cc1cccc(C(C)(C)C)c1NC(=O)CC1C(=O)Nc2ccccc2S1(=O)=O (stereo not given) | 5.06 µM (inactive) | 5.38 µM (inactive) | 8.11 µM (inactive) |  | 11.4 µM (inactive) | 11.2 µM (inactive) | 13.6 µM (inactive) | 14.1 µM (inactive) | 12.8 µM (inactive) | 10.8 µM (inactive) | 5.25 µM (inactive) | 10.6 µM (inactive) | 20.5 µM (inactive) | 14.9 µM (inactive) | 12.1 µM (inactive) | 13 µM (inactive) | 16.7 µM (inactive) | 16.8 µM (inactive) |
| COc1ccc2c(c1)CN1CCc3c(cc(OC)c(OC)c3OC)C1C2 (stereo not given) | 74.1 µM (inactive) | > 100 µM (inactive) | > 100 µM (inactive) | > 100 µM (inactive) | > 100 µM (inactive) | > 100 µM (inactive) | > 100 µM (inactive) | 47.6 µM (inactive) | 87.1 µM (inactive) | > 100 µM (inactive) | 68.5 µM (inactive) | > 100 µM (inactive) | > 100 µM (inactive) |  | 36.5 µM (inactive) | 64.1 µM (inactive) | > 100 µM (inactive) | > 100 µM (inactive) |
| COc1ccc(C2S/C(=C\c3ccccc3)C(=O)N2NC(=O)Cc2ccccc2)cc1 (stereo not given) | > 100 µM (inactive) | > 100 µM (inactive) |  | > 100 µM (inactive) | > 100 µM (inactive) | > 100 µM (inactive) | > 100 µM (inactive) | 26.1 µM (inactive) | > 100 µM (inactive) | > 100 µM (inactive) | > 100 µM (inactive) | > 100 µM (inactive) | > 100 µM (inactive) | > 100 µM (inactive) | > 100 µM (inactive) | > 100 µM (inactive) | > 100 µM (inactive) | > 100 µM (inactive) |
| COC(=O)C(c1n[nH]c2ccccc12)C(C(=O)OC)c1n[nH]c2ccccc12 (stereo not given) | 61.1 µM (inactive) | 30.9 µM (inactive) | > 100 µM (inactive) | > 100 µM (inactive) | 18.8 µM (inactive) | > 100 µM (inactive) | > 100 µM (inactive) | 41.7 µM (inactive) | 32.1 µM (inactive) | 49.4 µM (inactive) | 64.4 µM (inactive) | 24.8 µM (inactive) | > 100 µM (inactive) | > 100 µM (inactive) |  | > 100 µM (inactive) | > 100 µM (inactive) |  |
